Measured values as given in PubChem BioAssay AID248 (DTP/NCI, 2004).
Several values for one entry are separate records, joined by “and”; a condition that tells them apart may be missing. Equal values may be shown once. Inconclusive results and toxic doses are left out. Rule as the data show it: active = T/C of 150% or more; inactive = T/C below 125%. Peptide text beside a SMILES is read from it. * marks the point of attachment. Boc = CC(C)(C)OC(=O)*

Test system: L1210 leukemia ip in BDF1 mice, survival T/C
Experiment: NCI In Vivo Anticancer Drug Screen. Data for tumor model L1210 Leukemia (intraperitoneal) in B6D2F1 (BDF1) mice
Details: endpoint: mean survival time, higher = longer survival
Method in brief: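 Antitumor effect is assessed in tumor-bearing animals. Survival in the compound arm is compared with a vehicle-dosed control arm and expressed as their quotient.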

[1] = dose: 100.0 mg/kg/injection, schedule: Q04DX003 (ip), vehicle: saline
[2] = dose: 200.0 mg/kg/injection, schedule: Q04DX003 (ip), vehicle: saline
[3] = dose: 100.0 mg/kg/injection, schedule: Q01DX009 (ip), vehicle: Klucel (hydroxypropylcellulose) (HPC)
[4] = dose: 100.0 mg/kg/injection, schedule: Q04DX003 (ip), vehicle: Klucel (hydroxypropylcellulose) (HPC)
[5] = dose: 200.0 mg/kg/injection, schedule: Q01DX009 (ip), vehicle: Klucel (hydroxypropylcellulose) (HPC)
[6] = dose: 200.0 mg/kg/injection, schedule: Q04DX003 (ip), vehicle: Klucel (hydroxypropylcellulose) (HPC)
[7] = dose: 400.0 mg/kg/injection, schedule: Q04DX003 (ip), vehicle: Klucel (hydroxypropylcellulose) (HPC)
[8] = dose: 100.0 mg/kg/injection, schedule: Q01DX001 (ip), vehicle: saline
[9] = dose: 100.0 mg/kg/injection, schedule: Q01DX009 (ip), vehicle: saline with Tween-80
[10] = dose: 200.0 mg/kg/injection, schedule: Q01DX009 (ip), vehicle: saline with Tween-80
[11] = dose: 400.0 mg/kg/injection, schedule: Q01DX009 (ip), vehicle: saline with Tween-80

Measured: T/C

O=CNCC(=O)O
inactive: dose: 100.0 mg/kg/injection, schedule: Q04DX002 (ip), vehicle: saline 92 % of control | [1] 97 % of control | dose: 200.0 mg/kg/injection, schedule: Q04DX002 (ip), vehicle: saline 95 % of control | [2] 94 % of control | dose: 400.0 mg/kg/injection, schedule: Q04DX002 (ip), vehicle: saline 92 % of control | dose: 400.0 mg/kg/injection, schedule: Q04DX003 (ip), vehicle: saline 106 % of control

Clc1ccc(C2=NC3=CC(Cl)C=CC3=CC2C2CO2)cc1 (stereo not drawn)
inactive: [3] 96 % of control | [4] 94 % of control | [5] 98 % of control | [6] 94 % of control | [7] 98 % of control

Oc1c(Cl)cc(Cl)cc1/C=N/N1CCN(/N=C/c2cc(Cl)cc(Cl)c2O)CC1
inactive: [8] 87 % of control | dose: 200.0 mg/kg/injection, schedule: Q01DX001 (ip), vehicle: saline 87 % of control

CCOC(=O)c1cnc(SCc2ccccc2)[nH]c1=O
inactive: [9] 101 % of control | [10] 91 % of control | [11] 92 % of control

CN(C)c1ccc(C=C2c3ccccc3-c3ccccc32)cc1
inactive: [4] 97 % of control | [6] 96 % of control | [7] 94 % of control

CC(C)Oc1c(NCCO)c2cc(Cl)ccc2oc1=O
inactive: dose: 100.0 mg/kg/injection, schedule: Q04DX002 (ip), vehicle: Klucel (hydroxypropylcellulose) (HPC) 103 % of control | dose: 200.0 mg/kg/injection, schedule: Q04DX002 (ip), vehicle: Klucel (hydroxypropylcellulose) (HPC) 106 % of control | dose: 400.0 mg/kg/injection, schedule: Q04DX002 (ip), vehicle: Klucel (hydroxypropylcellulose) (HPC) 106 % of control

Cc1ccc(S(=O)(=O)N/N=C/c2ccc(C)s2)cc1
inactive: dose: 100.0 mg/kg/injection, schedule: Q04DX003 (ip), vehicle: saline with Tween-80 95 % of control | dose: 200.0 mg/kg/injection, schedule: Q04DX003 (ip), vehicle: saline with Tween-80 91 % of control | dose: 400.0 mg/kg/injection, schedule: Q04DX003 (ip), vehicle: saline with Tween-80 87 % of control

O=C(Nc1ccccc1)c1cc(Cl)cc(Cl)c1Br
inactive: dose: 100.0 mg/kg/injection, schedule: Q01DX001 (ip), vehicle: other 96 % of control | dose: 200.0 mg/kg/injection, schedule: Q01DX001 (ip), vehicle: other 96 % of control | dose: 400.0 mg/kg/injection, schedule: Q01DX001 (ip), vehicle: other 95 % of control

Fc1ccc2[nH]c3c(c2c1)C[P+](Cc1cccc2ccccc12)(c1ccccc1)CC3 (stereo not drawn)
inactive: [1] 98 % of control | [2] 88 % of control

O=c1cc(O)c2ccccc2o1
inactive: dose: 50.0 mg/kg/injection, schedule: Q01DX009 (ip), vehicle: Klucel (hydroxypropylcellulose) (HPC) 104 % of control | [3] 93 % of control | [5] 90 % of control

CCCCCCCCCCCCCCCCOc1ccc(S(=O)(=O)N2CCOCC2)cc1[N+](=O)[O-]
inactive: dose: 75.0 mg/kg/injection, schedule: Q04DX003 (ip), vehicle: saline 103 % of control | dose: 100.0 mg/kg/injection, schedule: Q01DX001 (ip), vehicle: Klucel (hydroxypropylcellulose) (HPC) 97 % of control | dose: 150.0 mg/kg/injection, schedule: Q04DX003 (ip), vehicle: saline 93 % of control | dose: 200.0 mg/kg/injection, schedule: Q01DX001 (ip), vehicle: Klucel (hydroxypropylcellulose) (HPC) 104 % of control | dose: 300.0 mg/kg/injection, schedule: Q04DX003 (ip), vehicle: saline 95 % of control | dose: 400.0 mg/kg/injection, schedule: Q01DX001 (ip), vehicle: Klucel (hydroxypropylcellulose) (HPC) 104 % of control

COC(=O)CNC(=O)C1CCCN1C(=O)C(Cc1c[nH]c2ccccc12)NC(=O)OC(C)(C)C (stereo not drawn) (Boc-Trp-Pro-Gly-OMe; configuration not given here)
inactive: [9] 88 % of control | [10] 100 % of control | [11] 100 % of control

CCOC(=O)C(OCc1ccccc1)(C(=O)NCCc1ccc(OC)c(OC)c1)C(C)C (stereo not drawn)
inactive: dose: 25.0 mg/kg/injection, schedule: Q01DX009 (ip), vehicle: other 108 % of control | dose: 50.0 mg/kg/injection, schedule: Q01DX009 (ip), vehicle: other 108 % of control | dose: 100.0 mg/kg/injection, schedule: Q01DX009 (ip), vehicle: other 103 % of control | dose: 200.0 mg/kg/injection, schedule: Q01DX009 (ip), vehicle: other 99 % of control | dose: 400.0 mg/kg/injection, schedule: Q01DX009 (ip), vehicle: other 91 % of control

CSC(N)=NC#N
inactive: dose: 100.0 mg/kg/injection, schedule: Q04DX002 (ip), vehicle: other 111 % of control | dose: 200.0 mg/kg/injection, schedule: Q04DX002 (ip), vehicle: other 93 % of control | dose: 400.0 mg/kg/injection, schedule: Q04DX002 (ip), vehicle: other 107 % of control

Cc1cc(C)c(O)c(CN(C)Cc2c(C)[nH]c(=O)[nH]c2=O)c1
inactive: dose: 100.0 mg/kg/injection, schedule: Q01DX001 (ip), vehicle: carboxymethylcellulose (CMC) 98 % of control | dose: 200.0 mg/kg/injection, schedule: Q01DX001 (ip), vehicle: carboxymethylcellulose (CMC) 91 % of control | dose: 400.0 mg/kg/injection, schedule: Q01DX001 (ip), vehicle: carboxymethylcellulose (CMC) 91 % of control

CN(C)C1=C(Cl)C(=O)c2ccccc2C1=O
inactive: dose: 50.0 mg/kg/injection, schedule: Q01DX001 (ip), vehicle: saline 102 % of control | [8] 100 % of control

COC1=C(N=[N+]=[N-])C(=O)C(OC)=C(N=[N+]=[N-])C1=O
inactive: dose: 2.0 mg/kg/injection, schedule: Q01DX009 (ip), vehicle: carboxymethylcellulose (CMC) 93 % of control | dose: 2.5 mg/kg/injection, schedule: Q01DX001 (ip), vehicle: carboxymethylcellulose (CMC) 95 % of control | dose: 4.0 mg/kg/injection, schedule: Q01DX009 (ip), vehicle: carboxymethylcellulose (CMC) 98 % of control | dose: 5.0 mg/kg/injection, schedule: Q01DX001 (ip), vehicle: carboxymethylcellulose (CMC) 91 % of control | dose: 5.0 mg/kg/injection, schedule: Q04DX003 (ip), vehicle: carboxymethylcellulose (CMC) 93 % of control | dose: 8.0 mg/kg/injection, schedule: Q01DX009 (ip), vehicle: carboxymethylcellulose (CMC) 104 % of control | dose: 10.0 mg/kg/injection, schedule: Q01DX001 (ip), vehicle: carboxymethylcellulose (CMC) 95 % of control and 100 % of control | dose: 10.0 mg/kg/injection, schedule: Q04DX003 (ip), vehicle: carboxymethylcellulose (CMC) 110 % of control | dose: 20.0 mg/kg/injection, schedule: Q01DX001 (ip), vehicle: carboxymethylcellulose (CMC) 98 % of control | dose: 20.0 mg/kg/injection, schedule: Q04DX003 (ip), vehicle: carboxymethylcellulose (CMC) 90 % of control | dose: 30.0 mg/kg/injection, schedule: Q04DX003 (ip), vehicle: saline with Tween-80 93 % of control | dose: 36.25 mg/kg/injection, schedule: Q01DX009 (ip), vehicle: saline 114 % of control | dose: 45.0 mg/kg/injection, schedule: Q04DX003 (ip), vehicle: saline with Tween-80 104 % of control | dose: 65.0 mg/kg/injection, schedule: Q04DX003 (ip), vehicle: saline with Tween-80 100 % of control | dose: 72.5 mg/kg/injection, schedule: Q01DX009 (ip), vehicle: saline 100 % of control | dose: 95.0 mg/kg/injection, schedule: Q04DX003 (ip), vehicle: saline 94 % of control | dose: 145.0 mg/kg/injection, schedule: Q01DX009 (ip), vehicle: saline 86 % of control | dose: 145.0 mg/kg/injection, schedule: Q04DX003 (ip), vehicle: saline 92 % of control
